The source made the active and inactive calls. No cut-off for these calls is given here.
Assays:
[1] = biological target: T1, Melanin-concentrating hormone receptor 1 (Homo sapiens, UniProt Q99705); assay: Displacement of [125I]MCH from MCHr1 expressed in IMR32 cells; type: cell-based, IMR-32
[2] = biological target: T1, Melanin-concentrating hormone receptor 1; assay: Antagonist activity at MCHr1 assessed as inhibition of MCH-mediated calcium ion release in intact IMR32 cells by FLIPR assay; type: functional, cell-based, IMR-32
Rattus norvegicus [3] = assay: Drug level in anesthetized Sprague-Dawley rat plasma; type: ADME, organism-based; details: in vivo
Rattus norvegicus [4] = assay: Drug level in anesthetized Sprague-Dawley rat brain; type: ADME, organism-based; details: in vivo
Rattus norvegicus [5] = assay: Decrease in mean arterial pressure in anesthetized Sprague-Dawley rat at 60 mg/kg; type: functional, Artery; parameters: scale not given: the % may be the effect or the level left
Rattus norvegicus [6] = assay: Decrease in heart rate in anesthetized Sprague-Dawley rat at 60 mg/kg; type: functional; parameters: scale not given: the % may be the effect or the level left
[7] = Cmax in C57BL/6J DIO mouse plasma at 10 mg/kg, po; type: ADME, organism-based; parameters: dose 10 mg/kg, route oral; details: read-out: Cmax
[8] = Half life in C57BL/6J DIO mouse plasma at 10 mg/kg, po; type: ADME, organism-based; parameters: dose 10 mg/kg, route oral
[9] = Cmax in C57BL/6J DIO mouse brain at 10 mg/kg, po; type: ADME, organism-based; parameters: dose 10 mg/kg, route oral
[10] = Half life in C57BL/6J DIO mouse brain at 10 mg/kg, po; type: ADME, organism-based; parameters: dose 10 mg/kg, route oral
Mus musculus [11] = assay: AUC in C57BL/6J DIO mouse brain at 10 mg/kg, po; type: ADME, organism-based; parameters: dose 10 mg/kg, route oral; details: in vivo
[12] = Ratio of AUC in brain to plasma of C57BL/6J DIO mouse at 10 mg/kg, po; type: ADME, organism-based; parameters: dose 10 mg/kg, route oral; details: brain and plasma, read-out: Ratio AUC
Mus musculus [13] = assay: Decrease in body weight of C57BL/6J DIO mouse at 10 mg/kg, po after 14 days relative to control; type: functional; parameters: scale not given: the % may be the effect or the level left
Mus musculus [14] = assay: Decrease in body weight of C57BL/6J DIO mouse at 30 mg/kg, po after 14 days relative to control; type: functional; parameters: scale not given: the % may be the effect or the level left
[15] = Drug level in C57BL/6J DIO mouse plasma at 10 mg/kg, po after 14 days; type: ADME, organism-based; parameters: dose 10 mg/kg, route oral
[16] = Drug level in C57BL/6J DIO mouse plasma at 30 mg/kg, po after 14 days; type: ADME, organism-based; parameters: dose 30 mg/kg, route oral
[17] = Drug level in C57BL/6J DIO mouse brain at 10 mg/kg, po after 14 days; type: ADME, organism-based; parameters: dose 10 mg/kg, route oral; details: read-out: Drug uptake
[18] = Drug level in C57BL/6J DIO mouse brain at 30 mg/kg, po after 14 days; type: ADME, organism-based; parameters: dose 30 mg/kg, route oral; details: read-out: Drug uptake
Mus musculus [19] = assay: Decrease in food intake of C57BL/6J DIO mouse at 10 mg/kg, po relative to control; type: functional; parameters: scale not given: the % may be the effect or the level left
Mus musculus [20] = assay: Decrease in food intake of C57BL/6J DIO mouse at 30 mg/kg, po relative to control; type: functional; parameters: scale not given: the % may be the effect or the level left
Mus musculus [21] = assay: Decrease in body weight of C57BL/6J DIO mouse at 1 mg/kg, po relative to control; type: functional, organism-based; parameters: dose 1 mg/kg
Mus musculus [22] = assay: Decrease in body weight of C57BL/6J DIO mouse at 3 mg/kg, po relative to control; type: functional, organism-based; parameters: dose 3 mg/kg

T1 sequence (Q99705 whole entry): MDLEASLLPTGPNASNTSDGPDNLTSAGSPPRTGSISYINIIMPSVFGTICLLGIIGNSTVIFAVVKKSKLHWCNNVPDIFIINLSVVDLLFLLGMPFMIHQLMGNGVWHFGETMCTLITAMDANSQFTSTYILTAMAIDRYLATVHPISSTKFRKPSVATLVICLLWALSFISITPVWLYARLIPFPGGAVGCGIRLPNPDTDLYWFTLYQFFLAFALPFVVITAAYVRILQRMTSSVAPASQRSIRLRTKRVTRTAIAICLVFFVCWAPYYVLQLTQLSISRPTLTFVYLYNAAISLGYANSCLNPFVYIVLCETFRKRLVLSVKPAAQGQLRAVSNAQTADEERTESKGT

IC50 [1] | IC50 [2] | Structure (SMILES) | other results
73 nM | 171 nM | O=C(NC1CCN(Cc2ccc3c(c2)OCCO3)CC1)c1cc(=O)c2ccc(F)cc2o1 | –
> 2000 nM | – | COc1ccc2c(=O)cc(C(=O)NC3CCC(CNCc4ccc5c(c4)OCO5)CC3)oc2c1 (stereo not drawn) | –
99 nM | 2720 nM | O=C(NC1CCN(Cc2ccc3c(c2)OCO3)CC1)c1cc(=O)c2cc(F)cc(F)c2o1 | –
11 nM | 73 nM | COc1ccc2c(=O)cc(C(=O)NC3CCN(Cc4ccc5c(c4)OCO5)CC3)oc2c1 | Cp (Rattus norvegicus [3]): 29000 ng/mL; Drug uptake (Rattus norvegicus [4]): 158 µg/g; Cmax [7]: 3600 ng/mL; half-life [8]: 3.1 h; Cmax [9]: 548 ng/g; half-life [10]: 4.9 h; AUC (Mus musculus [11]): 4398 ng·h/g; Kp [12]: 0.24; Activity (Mus musculus [13]): 7.3%; Activity (Mus musculus [14]): 15.9%; concentration at 336 h [15]: 10100 ng/mL; concentration at 336 h [16]: 32900 ng/mL; concentration at 336 h [17]: 4900 ng/g; concentration at 336 h [18]: 27100 ng/g; Activity (Mus musculus [19]): 16%; Activity (Mus musculus [20]): 37%; Activity (Mus musculus [21]): inactive; Activity (Mus musculus [22]): inactive
1480 nM | > 10000 nM | O=C(NC1CCN(Cc2ccc3c(c2)OCO3)CC1)c1cc(=O)c2ccc(O)cc2o1 | –
91 nM | 418 nM | O=C(NC1CCN(Cc2ccc3c(c2)OCO3)CC1)c1cc(=O)c2cc(F)c(F)c(F)c2o1 | –
5 nM | 79 nM | O=C(NC1CCN(Cc2ccc3c(c2)OCO3)CC1)c1cc(=O)c2ccc(Cl)cc2o1 | –
> 2000 nM | – | COc1ccc2c(=O)cc(C(=O)NC3CCN(Cc4ccc5c(c4)OCO5)C3)oc2c1 (stereo not drawn) | –
53 nM | 411 nM | COc1ccc(CN2CCC(NC(=O)c3cc(=O)c4ccc(F)cc4o3)CC2)c(F)c1 | –
3 nM | 71 nM | O=C(NC1CCN(Cc2ccc3c(c2)OCO3)CC1)c1cc(=O)c2cc(F)c(Cl)cc2o1 | –

More lines, now with the values behind:

Structure (SMILES) | IC50 [1] | IC50 [2] | other results
O=C(NC1CCN(Cc2cccc(F)c2)CC1)c1cc(=O)c2ccc(F)cc2o1 | 12 nM | 966 nM | –
O=C(NC1CCN(Cc2ccc3c(c2)OCO3)CC1)c1cc(=O)c2ccc(C(F)(F)F)cc2o1 | 178 nM | 3070 nM | –
O=C(NC1CCN(Cc2ccc3c(c2)OC(F)(F)O3)CC1)c1cc(=O)c2ccc(F)cc2o1 | 57 nM | 601 nM | –
COc1cc2oc(C(=O)NC3CCN(Cc4ccc5c(c4)OCO5)CC3)cc(=O)c2cc1F | 2 nM | 16 nM | Cp (Rattus norvegicus [3]): 105000 ng/mL; Drug uptake (Rattus norvegicus [4]): 149 µg/g; Activity (Rattus norvegicus [5]): 15.3%; Activity (Rattus norvegicus [6]): <15%
O=C(NC1CCN(Cc2ccc3c(c2)OCO3)CC1)c1cc(=O)c2c(Cl)c(Cl)ccc2o1 | 75 nM | 4750 nM | –
COc1ccc2c(=O)cc(C(=O)NCCC3CCCN3Cc3ccc4c(c3)OCO4)oc2c1 (stereo not drawn) | > 2000 nM | – | –
COc1ccc2c(=O)cc(C(=O)NCC3CCN(Cc4ccc5c(c4)OCO5)C3)oc2c1 (stereo not drawn) | 1140 nM | 8300 nM | –
O=C(NC1CCN(Cc2cc3c(cc2Cl)OCO3)CC1)c1cc(=O)c2ccc(F)cc2o1 | 22 nM | 266 nM | –
O=C(NC1CCN(Cc2ccc3c(c2)OCO3)CC1)c1cc(=O)c2c(Cl)cccc2o1 | 24 nM | > 10000 nM | –
O=C(NC1CCN(Cc2ccc3c(c2)OCO3)CC1)c1cc(=O)c2ccc(OC(F)F)cc2o1 | 64 nM | 160 nM | –
O=C(NC1CCN(Cc2ccccc2F)CC1)c1cc(=O)c2ccc(F)cc2o1 | 566 nM | 2150 nM | –
O=C(NC1CCN(Cc2ccc3c(c2)OCO3)CC1)c1cc(=O)c2cc(OC(F)(F)F)ccc2o1 | 132 nM | > 9000 nM | –
